Assay results taken from US10575752B2, “System and method for determination of a brainstem response state development” (SensoDetect AB, priority 2010, dated 2020).

Tested on: brainstem
Assay: Test of the effect of oral methylphenidate on evoked averaged brainstem response in a patient with ADHD
Assay type: in vivo, human
Procedure: To emphasize the importance of using the subject as its own reference when conducting herein described tests, FIG. 8a-c is showing a test of the effect of oral methylphenidate medication in a patient with ADHD. In this test each of the train of sound pulses will repeatedly present sound pulses to the patient for thirty seconds and for each sound pulse presented to the subject a corresponding response signal is recorded. The response signal for each set of train of sound pulses is then averaged to obtain an evoked averaged brainstem response.
In FIG. 8a, a measuring with only unmodified sound pulses, i.e. the sound stimuli comprising only one train being a train of unmodified sound pulses 72. Sound stimuli were presented twice to the subject (at t0+0 and t0+60 sec) and the corresponding response signals were recorded and evoked averaged brainstem responses were established 74a, 74b. This was done when the patient was not under influence of methylphenidate medication, i.e. baseline or control state. The measured variable is here an absolute value 70 measured in μV of the amplitude of peak III. […] Both times the corresponding response signals were recorded and evoked averaged brainstem responses were established 74c, 74d.
In FIG. 8b, a measuring with only modified sound pulses, i.e. the sound stimuli comprising only one train being a train of modified sound pulses 73. Sound stimuli were presented twice to the subject (at t0+0 and t0+60 sec) and the corresponding response signals were recorded and evoked averaged brainstem responses were established 75a, 75b. This was done when the patient was not under influence of methylphenidate medication, i.e. baseline or control state. The measured variable is here an absolute value 71 measured in NV of the amplitude of peak III. […] Both times the corresponding response signals were recorded and evoked averaged brainstem responses were established 75c, 75d. […]

Structure (SMILES): COC(=O)C(c1ccccc1)C1CCCCN1 (stereo not drawn) [methylphenidate]
- methylphenidate effect on amplitude of peak III (absolute value), only modified sound pulses (single train of modified sound pulses, t1+0 and t1+60 sec vs drug-free baseline, FIG. 8b): no detectable methylphenidate effect could be established
- methylphenidate effect on amplitude of peak III (absolute value), only unmodified sound pulses (single train of unmodified sound pulses, t1+0 and t1+60 sec vs drug-free baseline, FIG. 8a): no detectable methylphenidate effect could be established
- methylphenidate effect on relative measure (modified train averaged evoked brainstem response as a percentage of the unmodified average evoked response) (unmodified train followed by modified train, compared at t1+60 sec and t1+120 sec vs drug-free baseline, FIG. 8c): detectable methylphenidate effect could be seen
